US8034923B1, “Reagents for reversibly terminating primer extension” (priority 2009, dated 2011)

Key:
[1] = Cleavage of 3′-O-aminothymidine 1b with aqueous HONO and no cosolvent; format: physicochemical
Description: (§1) To an aqueous solution of 3′-O-aminothymidine (1b, 20 mM, 2 μL) was added aqueous nitrous acid (350-700 mM NaNO2/1 M NaOAc, 50 μL, pH 5.5-5.75). The resulting pH was measured with a microelectrode (accuracy ca. ±0.02). After 1 or 2 min at room temperature, the reaction was quenched by the addition of K-phosphate buffer (1 M, 200 μL, pH 7), and analyzed by analytical reverse-phase HPLC (Waters NovaPak C-18 4 μm, 3.9×150 mm, with guard column Waters NovaPak C-18 4 μm, 3.9×15 mm, eluent A=25 mM TEAA pH 7, eluent B=acetonitrile, gradient from 3% B to 13% B in 20 min, flow rate=0.5 mL/min, Rt=product: 8 min; starting material: 11 min.). The amount of cleavage was determined by integrating (267 nm) the peaks of the remaining 1b and the product (thymidine). The rates are as follows: As control, the natural nucleosides were treated as follows: An aqueous solution of 2′-deoxyguanosine or 2′-deoxyadenosine or 2′-deoxycytidine (20 mM, 30 μL) was treated with aqueous nitrous acid (700 mM NaNO2, 1 M NaOAc, pH 5.5, 500 μL) at room temperature for 72 h (i.e. 4320 min). An aliquot (50 μL) was removed, neutralized by the addition of K-phosphate buffer (1 M, 200 μL, pH 7), and analyzed by analytical reverse-phase HPLC (Waters NovaPak C-18 4 μm, 3.9×150 mm, with guard column Waters NovaPak C-18 4 μm, 3.9×15 mm. eluent A=25 mM TEAA pH 7, eluent B=acetonitrile, gradient from 0% B to 3% B in 10 min, then to 30% B in 20 min, flow rate=0.5 mL/min, Rt=dG: 14 min, dA: 18 min, dC: 8 min). The amount of decomposition was determined by integrating (260 nm) the peaks of the remaining starting material (nucleoside) and the product(s).

[2] = molecular target: T1, Taq polymerase from New England Biolabs (Thermus aquaticus, UniProt P19821); test: Standing start primer-extension assay; format: biochemical; conditions: 100 μM triphosphate, 72° C., 2 min
T1 construct: purchased New England Biolabs
T1 sequence (P19821 whole entry): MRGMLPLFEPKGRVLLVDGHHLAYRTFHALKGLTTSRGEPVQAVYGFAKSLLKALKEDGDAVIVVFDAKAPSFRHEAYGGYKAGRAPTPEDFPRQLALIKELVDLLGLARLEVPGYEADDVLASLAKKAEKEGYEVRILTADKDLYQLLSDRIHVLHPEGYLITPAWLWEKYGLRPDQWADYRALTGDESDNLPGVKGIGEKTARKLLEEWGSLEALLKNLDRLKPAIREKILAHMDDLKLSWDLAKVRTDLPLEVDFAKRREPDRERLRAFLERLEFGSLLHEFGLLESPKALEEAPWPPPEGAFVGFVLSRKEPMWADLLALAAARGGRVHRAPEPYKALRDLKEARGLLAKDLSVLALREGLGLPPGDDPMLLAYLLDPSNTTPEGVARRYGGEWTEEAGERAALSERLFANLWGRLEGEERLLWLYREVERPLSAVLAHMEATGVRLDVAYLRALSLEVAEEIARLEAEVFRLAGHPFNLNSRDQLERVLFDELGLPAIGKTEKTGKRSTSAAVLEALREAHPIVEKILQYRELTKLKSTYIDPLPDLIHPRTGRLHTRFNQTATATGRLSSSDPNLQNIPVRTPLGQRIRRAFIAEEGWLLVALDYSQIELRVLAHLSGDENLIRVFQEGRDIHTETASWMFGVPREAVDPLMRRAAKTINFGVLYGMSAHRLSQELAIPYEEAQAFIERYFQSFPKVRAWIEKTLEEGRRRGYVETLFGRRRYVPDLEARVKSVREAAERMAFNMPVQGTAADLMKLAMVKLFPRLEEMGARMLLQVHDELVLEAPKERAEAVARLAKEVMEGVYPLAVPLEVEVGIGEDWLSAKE
Description: (§2) Gamma-^32P-labeled primer SEQ ID 1 (2.5 pmol), cold primer SEQ ID 1 (22.5 pmol) and template SEQ ID 2 (30 pmol) were annealed by incubation at 95° C. for […] in NEB ThermoPol Reaction Buffer (20 mM Tris-HCl, 10 mM KCl, 10 mM (NH4)2SO4, 2 mM MgSO4, 0.1% TritonX-100) and slowly cooled to room temperature, followed by the addition of Taq cell-free extract (4 μL, the sole source of polymerase). Then, the mixture (final volume 10 μL) was pre-heated to 72° C. (30 sec), and the extension was initiated by adding either reversibly terminated or irreversibly terminated nucleoside triphosphates (final concentration of 100 μM) or both. After 2 mM, the reaction was quenched by 10 mM EDTA in formamide loading buffer (20 μL) and was resolved on a 14% PAGE (FIGS. 8 and 9).
(§3) 93 Taq polymerase variants from PD library (Table 1) were tested for their ability to incorporate TTP-ONH2. Co-Taq polymerase and the Taq polymerase from New England Biolabs were also tested in parallel as controls. […] Of these variants, eight extended the primer by more than 50% to N+1, performing better than Co-Taq.

[3] = system: 93 Taq polymerase variants from PD library; test: Standing start primer-extension assay, PD library screen; format: biochemical; conditions: 100 μM triphosphate, 72° C., 2 min
Description: as §2, §3
To explore the potential of these variant polymerases to incorporate the corresponding 2′-, 3′-dideoxynucleotide, they were challenged with ddTTP (FIG. 9). A total of 27 variant polymerases were able to incorporate ddTTP to a detectable extent, while three of these variants converted more than 50% of the primer to n+1 product.

[4] = molecular target: T2, PD-42 (Taq A597T, L616A, F667Y, E745H) (Thermus aquaticus, UniProt P19821, A597T/E745H/F667Y/L616A); test: Primer extension / fidelity test with PD-42; format: biochemical; conditions: 100 μM, 72° C.
T2 construct: made in house; pASK-IBA43plus vector
T2 sequence (P19821 whole entry A597T/L616A/F667Y/E745H): as the sequence (P19821 whole entry) above, with A597T, L616A, F667Y, E745H counted along it
Description: as §2
In a 10 μL reaction volume, γ^32P-labeled primer SEQ ID 1([…]), cold primer SEQ ID 1 ([…]) and four kinds of 36 nt long template ([…]) (see above) were annealed respectively by incubation at 95° C. for 5 min and slow cooled to room temperature. 1 (0.25 μg/μL) of PD-42 and 58 (polymerases were purified by Qiagen Ni-NTA Spin Kit) were then added to reactions and incubated at 72° C. for 2 min. Reactions were initiated by the addition of dNTP-ONH2 or ddNTP (Final concentration of 100 μM) (refer to FIG. 13 for specifics) and were resolved on a 14% PAGE.
Two of the 93 variants that performed well with both dTTP-3′-ONH2 and ddTTP were further examined: PD-42 (A597T, L616A, F667Y, E745H) and PD-58 (E520G, K540I, L616A).

[5] = molecular target: T3, PD-58 (E520G, K540I, L616A) (Thermus aquaticus, UniProt P19821, E520G/K540I/L616A); test: Primer extension / fidelity test with PD-58; format: biochemical; conditions: 100 μM, 72° C.
T3 construct: made in house; pASK-IBA43plus vector
T3 sequence (P19821 whole entry E520G/K540I/L616A): as the sequence (P19821 whole entry) above, with E520G, K540I, L616A counted along it
Description: To determine whether HONO could cleave the 3′-terminal ONH2 group from a template-bound oligonucleotide and permit subsequent primer extension in a cycle of the type needed for sequencing using cyclic reversible termination, a 5′-biotinylated template that called for incorporation of two consecutive T's opposite the two consecutive template A′ s was used. Streptavidin on magnetic beads was used to recover products. In the first cycle, beads were incubated (72° C., 2 min) with PD-58 polymerase in the presence of T-ONH2 triphosphate (100 μM). Then, the products were treated with buffered sodium nitrite/HONO to cleave the —ONH2 group, generating a free 3′-OH group. […] This was indicated by a slower moving band arising from the reversibly terminated N+1 product.
as §2, with “After 2 mM, the reaction was quenched by 10 mM EDTA in formamide loading buffer (20 μL) and was resolved on a 14% PAGE (FIGS. 8 and 9).” left out

[6] = Treatment of natural nucleosides with aqueous nitrous acid (control, decomposition by HPLC); format: physicochemical; conditions: 700 mM NaNO2, 1 M NaOAc, pH 5.5, room temperature; for oxidation 2 min (extrapolated): extrapolated to 2 min
Description: as §1

[7] = molecular target: Terminal Transferase (TdT) (Bos taurus, UniProt P06526); test: Tailing of reversible terminators using terminal transferase; format: biochemical; conditions: 5 μM to 250 μM terminator, 37° C., 1 hour, 8% PAGE
Sequence of Terminal Transferase (TdT) (P06526 whole entry): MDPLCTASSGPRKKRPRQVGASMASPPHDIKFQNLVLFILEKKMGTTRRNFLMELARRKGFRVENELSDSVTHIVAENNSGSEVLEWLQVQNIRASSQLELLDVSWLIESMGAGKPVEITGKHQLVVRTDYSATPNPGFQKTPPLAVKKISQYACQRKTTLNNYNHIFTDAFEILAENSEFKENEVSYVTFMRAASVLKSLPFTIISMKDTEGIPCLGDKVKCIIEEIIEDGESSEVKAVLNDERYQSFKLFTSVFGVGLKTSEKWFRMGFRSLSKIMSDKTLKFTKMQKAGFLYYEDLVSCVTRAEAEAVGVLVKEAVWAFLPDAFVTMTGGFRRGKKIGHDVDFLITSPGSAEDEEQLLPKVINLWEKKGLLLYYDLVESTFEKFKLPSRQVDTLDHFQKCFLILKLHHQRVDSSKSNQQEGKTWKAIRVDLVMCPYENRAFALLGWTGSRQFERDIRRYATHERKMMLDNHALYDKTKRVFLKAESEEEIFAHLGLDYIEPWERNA
Description: The oligonucleotide SEQ ID 1 was ^32P-5′ labeled using OptiKinase (USB Corporation). Pyrimidine tailing buffer reactions (20 μL) contained 100 mM cacodylate buffer (pH 7.1), 2 mM CoCl2, 0.1 mM DTT, […] of radiolabeled template (0.5 μM), 10 units of Terminal Transferase (TdT), and varying amounts of reversible terminator from 5 μM to 250 μM. Samples were incubated at 37° C. for 1 hour and were terminated by heating at 70° C. for 10 min. Samples were resolved on 8% PAGE. […] If treated with TdT and a composition of the instant invention, the ssDNA would be derivatized with a 3′-ONH2 group. This could then be captured by an aldehyde affixed to a solid support.

[8] = [HONO] 700 mM, pH 5.50, room temperature

## Cc1cn([C@H]2C[C@H](ON)[C@@H](CO)O2)c(=O)[nH]c1=O [1b, 3′-O-aminothymidine]
[1]; [HONO] 350 mM, pH 5.50, room temperature
  cleavage 2 min: 90%
[1]; [8]
  cleavage 1 min: 98%
  cleavage 2 min: >99%
[1]; [HONO] 700 mM, pH 5.65, room temperature
  cleavage 2 min: 96%

## Cc1cn([C@H]2C[C@H](ON)[C@@H](COP(=O)(O)OP(=O)(O)OP(=O)(O)O)O2)c(=O)[nH]c1=O [TTP-ONH2, 3′-O-Amino-thymidine-5′-triphosphate]
[2]
  N+1 product on incorporation: at most a trace of N+1 product
[3]
  number of variant polymerases able to incorporate better than NEB Taq: 30
  number of variants that extended more than 50% of the primer to N+1: eight
  share of the PD library mutants able to incorporate better than NEB Taq: 32.3%
[4]; PD library screen
  incorporation by PD-42: best incorporation
[5]; PD library screen
  incorporation by PD-58: best incorporation
[5]; template on streptavidin magnetic beads, 2 min
  primer extension and termination by PD-58: clean N+1 products

## Nc1ncnc2c1ncn2[C@H]1C[C@H](O)[C@@H](CO)O1 [dA, 2′-deoxyadenosine]
[6]
  oxidation 72 h: 13%
  oxidation 2 min (extrapolated): <1/10000

## NO[C@H]1C[C@H](n2cnc3c(N)ncnc32)O[C@@H]1COP(=O)(O)OP(=O)(O)OP(=O)(O)O [dATP-ONH2, 3′-O-Amino-2′-deoxyadenosine-5′-triphosphate]
[4]; PAGE
  misincorporation product opposite template A (SEQ ID 3) by PD-42: trace amounts of products

## Nc1ccn([C@H]2C[C@H](O)[C@@H](CO)O2)c(=O)n1 [dC, 2′-deoxycytidine]
[6]
  oxidation 72 h: 15%
  oxidation 2 min (extrapolated): <1/10000

## NO[C@H]1C[C@H](n2ccc(N)nc2=O)O[C@@H]1COP(=O)(O)OP(=O)(O)OP(=O)(O)O [dCTP-ONH2, 3′-O-Amino-2′-deoxycytidine-5′-triphosphate]
[7]
  primer consumption on TdT tailing: almost all of the primer was remaining
[4]; PAGE
  misincorporation product opposite template dC by PD-42: trace amounts of products

## Nc1nc2c(ncn2[C@H]2C[C@H](O)[C@@H](CO)O2)c(=O)[nH]1 [dG, 2′-deoxyguanosine]
[6]
  oxidation 72 h: 20%
  oxidation 2 min (extrapolated): <1/10000

## NO[C@H]1C[C@H](n2cnc3c(=O)[nH]c(N)nc32)O[C@@H]1COP(=O)(O)OP(=O)(O)OP(=O)(O)O [dGTP-ONH2, 3′-O-Amino-2′-deoxyguanosine-5′-triphosphate]
[7]
  primer consumption on TdT tailing: Almost all of the primer was exhausted

## Cc1cn([C@H]2CC[C@@H](COP(=O)(O)OP(=O)(O)OP(=O)(O)O)O2)c(=O)[nH]c1=O [ddTTP, 2′,3′-dideoxythymidine-5′-triphosphate, reference compound]
[3]
  number of variant polymerases able to incorporate to a detectable extent: 27
  number of variants that extended more than 50% of the primer to N+1: three
